Legend:
Assay in all cases: relative viability (nuclei count vs DMSO), 5 days (fraction); higher = more cells survive
Etoposide + Linsitinib = compound: COc1cc([C@@H]2c3cc4c(cc3[C@@H](O[C@@H]3O[C@@H]5CO[C@@H](C)O[C@H]5[C@H](O)[C@H]3O)[C@H]3COC(=O)[C@H]23)OCO4)cc(OC)c1O [Etoposide] + C[C@]1(O)C[C@@H](c2nc(-c3ccc4ccc(-c5ccccc5)nc4c3)c3c(N)nccn32)C1 [Linsitinib] (partner 1 µM)
Outline: (§1)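 Relative viability was taken as the ratio of nuclei in treated wells to nuclei in vehicle wells. Lung cancer cell lines in 1536-well plates received compounds by pin tool one day after seeding, either one drug alone or a fixed anchor-drug dose plus five library-drug doses (not always all listed) in √10 steps. Nuclei were counted on 4× images after 5 days of treatment, and values are medians of duplicate plates.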

Bleomycin + Alpelisib = compound: CC1=C(N=C(N=C1N)[C@H](CC(=O)N)NC[C@@H](C(=O)N)N)C(=O)N[C@@H]([C@H](C2=CN=CN2)OC3C(C(C(C(O3)CO)O)O)OC4C(C(C(C(O4)CO)O)OC(=O)N)O)C(=O)N[C@H](C)[C@H]([C@H](C)C(=O)N[C@@H]([C@@H](C)O)C(=O)NCCC5=NC(=CS5)C6=NC(=CS6)C(=O)NCCC[S+](C)C)O [Bleomycin] + Cc1nc(NC(=O)N2CCC[C@H]2C(N)=O)sc1-c1ccnc(C(C)(C)C(F)(F)F)c1 [Alpelisib] (partner 2 µM); details: main component drawn
Outline: as §1

Bleomycin + Olaparib = compound: CC1=C(N=C(N=C1N)[C@H](CC(=O)N)NC[C@@H](C(=O)N)N)C(=O)N[C@@H]([C@H](C2=CN=CN2)OC3C(C(C(C(O3)CO)O)O)OC4C(C(C(C(O4)CO)O)OC(=O)N)O)C(=O)N[C@H](C)[C@H]([C@H](C)C(=O)N[C@@H]([C@@H](C)O)C(=O)NCCC5=NC(=CS5)C6=NC(=CS6)C(=O)NCCC[S+](C)C)O [Bleomycin] + O=C(c1cc(Cc2n[nH]c(=O)c3ccccc23)ccc1F)N1CCN(C(=O)C2CC2)CC1 [Olaparib] (partner 8 µM); details: main component drawn
Outline: as §1

Etoposide + Bortezomib = compound: COc1cc([C@@H]2c3cc4c(cc3[C@@H](O[C@@H]3O[C@@H]5CO[C@@H](C)O[C@H]5[C@H](O)[C@H]3O)[C@H]3COC(=O)[C@H]23)OCO4)cc(OC)c1O [Etoposide] + CC(C)C[C@H](NC(=O)[C@H](Cc1ccccc1)NC(=O)c1cnccn1)B(O)O [Bortezomib] (partner 0.002 µM)
Outline: as §1

Cell Line: NCI-H2126
- relative viability (Etoposide + Linsitinib; first compound 0.01 µM): 0.738
- relative viability (Etoposide + Linsitinib; first compound 0.03162 µM): 0.719
- relative viability (Etoposide + Linsitinib; first compound 0.1 µM): 0.457
- relative viability (Etoposide + Linsitinib; first compound 0.3162 µM): 0.598
- relative viability (Etoposide + Linsitinib; first compound 1 µM): 0.437
- relative viability (Bleomycin + Alpelisib; first compound 0.01 µM): 0.758
- relative viability (Bleomycin + Alpelisib; first compound 0.03162 µM): 0.789
- relative viability (Bleomycin + Alpelisib; first compound 0.1 µM): 0.808
- relative viability (Bleomycin + Alpelisib; first compound 0.3162 µM): 0.6
- relative viability (Bleomycin + Alpelisib; first compound 1 µM): 0.552
- relative viability (Bleomycin + Olaparib; first compound 0.01 µM): 0.863
- relative viability (Bleomycin + Olaparib; first compound 0.03162 µM): 0.933
- relative viability (Bleomycin + Olaparib; first compound 0.1 µM): 0.932
- relative viability (Bleomycin + Olaparib; first compound 0.3162 µM): 0.739
- relative viability (Bleomycin + Olaparib; first compound 1 µM): 0.67
- relative viability (Etoposide + Bortezomib; first compound 0.01 µM): 1.19
- relative viability (Etoposide + Bortezomib; first compound 0.03162 µM): 1.09
- relative viability (Etoposide + Bortezomib; first compound 0.1 µM): 0.801
- relative viability (Etoposide + Bortezomib; first compound 0.3162 µM): 1
- relative viability (Etoposide + Bortezomib; first compound 1 µM): 0.659

Cell Line: LK-2
- relative viability (Etoposide + Linsitinib; first compound 0.01 µM): 0.522
- relative viability (Etoposide + Linsitinib; first compound 0.03162 µM): 0.442
- relative viability (Etoposide + Linsitinib; first compound 0.1 µM): 0.295
- relative viability (Etoposide + Linsitinib; first compound 0.3162 µM): 0.442
- relative viability (Etoposide + Linsitinib; first compound 1 µM): 0.18
- relative viability (Bleomycin + Alpelisib; first compound 0.01 µM): 0.579
- relative viability (Bleomycin + Alpelisib; first compound 0.03162 µM): 0.505
- relative viability (Bleomycin + Alpelisib; first compound 0.1 µM): 0.478
- relative viability (Bleomycin + Alpelisib; first compound 0.3162 µM): 0.282
- relative viability (Bleomycin + Alpelisib; first compound 1 µM): 0.251
- relative viability (Bleomycin + Olaparib; first compound 0.01 µM): 0.369
- relative viability (Bleomycin + Olaparib; first compound 0.03162 µM): 0.451
- relative viability (Bleomycin + Olaparib; first compound 0.1 µM): 0.279
- relative viability (Bleomycin + Olaparib; first compound 0.3162 µM): 0.163
- relative viability (Bleomycin + Olaparib; first compound 1 µM): 0.165

Cell Line: NCI-H1437
- relative viability (Etoposide + Linsitinib; first compound 0.01 µM): 0.993
- relative viability (Etoposide + Linsitinib; first compound 0.03162 µM): 1.07
- relative viability (Etoposide + Linsitinib; first compound 0.1 µM): 0.984
- relative viability (Etoposide + Linsitinib; first compound 0.3162 µM): 0.566
- relative viability (Etoposide + Linsitinib; first compound 1 µM): 0.262
- relative viability (Bleomycin + Alpelisib; first compound 0.01 µM): 0.799
- relative viability (Bleomycin + Alpelisib; first compound 0.03162 µM): 0.922
- relative viability (Bleomycin + Alpelisib; first compound 0.1 µM): 0.83
- relative viability (Bleomycin + Alpelisib; first compound 0.3162 µM): 0.406
- relative viability (Bleomycin + Alpelisib; first compound 1 µM): 0.396
- relative viability (Bleomycin + Olaparib; first compound 0.01 µM): 0.571
- relative viability (Bleomycin + Olaparib; first compound 0.03162 µM): 0.593
- relative viability (Bleomycin + Olaparib; first compound 0.1 µM): 0.499
- relative viability (Bleomycin + Olaparib; first compound 0.3162 µM): 0.397
- relative viability (Bleomycin + Olaparib; first compound 1 µM): 0.378
- relative viability (Etoposide + Bortezomib; first compound 0.01 µM): 0.378
- relative viability (Etoposide + Bortezomib; first compound 0.03162 µM): 0.547
- relative viability (Etoposide + Bortezomib; first compound 0.1 µM): 0.492
- relative viability (Etoposide + Bortezomib; first compound 0.3162 µM): 0.243
- relative viability (Etoposide + Bortezomib; first compound 1 µM): 0.273

Cell Line: COR-L23
- relative viability (Etoposide + Linsitinib; first compound 0.01 µM): 0.818
- relative viability (Etoposide + Linsitinib; first compound 0.03162 µM): 0.841
- relative viability (Etoposide + Linsitinib; first compound 0.1 µM): 0.942
- relative viability (Etoposide + Linsitinib; first compound 0.3162 µM): 0.578
- relative viability (Etoposide + Linsitinib; first compound 1 µM): 0.237
- relative viability (Bleomycin + Alpelisib; first compound 0.01 µM): 0.516
- relative viability (Bleomycin + Alpelisib; first compound 0.03162 µM): 0.495
- relative viability (Bleomycin + Alpelisib; first compound 0.1 µM): 0.262
- relative viability (Bleomycin + Alpelisib; first compound 0.3162 µM): 0.0744
- relative viability (Bleomycin + Alpelisib; first compound 1 µM): 0.0882
- relative viability (Bleomycin + Olaparib; first compound 0.01 µM): 0.253
- relative viability (Bleomycin + Olaparib; first compound 0.03162 µM): 0.188
- relative viability (Bleomycin + Olaparib; first compound 0.1 µM): 0.133
- relative viability (Bleomycin + Olaparib; first compound 0.3162 µM): 0.0874
- relative viability (Bleomycin + Olaparib; first compound 1 µM): 0.0995
- relative viability (Etoposide + Bortezomib; first compound 0.01 µM): 0.962
- relative viability (Etoposide + Bortezomib; first compound 0.03162 µM): 0.937
- relative viability (Etoposide + Bortezomib; first compound 0.1 µM): 0.804
- relative viability (Etoposide + Bortezomib; first compound 0.3162 µM): 0.693
- relative viability (Etoposide + Bortezomib; first compound 1 µM): 0.342

Cell Line: ABC-1
- relative viability (Etoposide + Linsitinib; first compound 0.01 µM): 0.753
- relative viability (Etoposide + Linsitinib; first compound 0.03162 µM): 0.894
- relative viability (Etoposide + Linsitinib; first compound 0.1 µM): 0.879
- relative viability (Etoposide + Linsitinib; first compound 0.3162 µM): 0.418
- relative viability (Etoposide + Linsitinib; first compound 1 µM): 0.308
- relative viability (Bleomycin + Alpelisib; first compound 0.01 µM): 0.883
- relative viability (Bleomycin + Alpelisib; first compound 0.03162 µM): 1.03
- relative viability (Bleomycin + Alpelisib; first compound 0.1 µM): 0.615
- relative viability (Bleomycin + Alpelisib; first compound 0.3162 µM): 0.425
- relative viability (Bleomycin + Alpelisib; first compound 1 µM): 0.298
- relative viability (Bleomycin + Olaparib; first compound 0.01 µM): 0.851
- relative viability (Bleomycin + Olaparib; first compound 0.03162 µM): 1.04
- relative viability (Bleomycin + Olaparib; first compound 0.1 µM): 0.849
- relative viability (Bleomycin + Olaparib; first compound 0.3162 µM): 0.818
- relative viability (Bleomycin + Olaparib; first compound 1 µM): 0.232
- relative viability (Etoposide + Bortezomib; first compound 0.01 µM): 0.301
- relative viability (Etoposide + Bortezomib; first compound 0.03162 µM): 0.33
- relative viability (Etoposide + Bortezomib; first compound 0.1 µM): 0.261
- relative viability (Etoposide + Bortezomib; first compound 0.3162 µM): 0.296
- relative viability (Etoposide + Bortezomib; first compound 1 µM): 0.237

Cell Line: SW 900
- relative viability (Bleomycin + Olaparib; first compound 0.01 µM): 0.577
- relative viability (Bleomycin + Olaparib; first compound 0.03162 µM): 0.615
- relative viability (Bleomycin + Olaparib; first compound 0.1 µM): 0.442
- relative viability (Bleomycin + Olaparib; first compound 0.3162 µM): 0.218
- relative viability (Bleomycin + Olaparib; first compound 1 µM): 0.206

Cell Line: PC-14
- relative viability (Etoposide + Linsitinib; first compound 0.01 µM): 1.01
- relative viability (Etoposide + Linsitinib; first compound 0.03162 µM): 1.05
- relative viability (Etoposide + Linsitinib; first compound 0.1 µM): 0.956
- relative viability (Etoposide + Linsitinib; first compound 0.3162 µM): 0.838
- relative viability (Etoposide + Linsitinib; first compound 1 µM): 0.507
- relative viability (Bleomycin + Alpelisib; first compound 0.01 µM): 0.626
- relative viability (Bleomycin + Alpelisib; first compound 0.03162 µM): 0.534
- relative viability (Bleomycin + Alpelisib; first compound 0.1 µM): 0.303
- relative viability (Bleomycin + Alpelisib; first compound 0.3162 µM): 0.0745
- relative viability (Bleomycin + Alpelisib; first compound 1 µM): 0.067
- relative viability (Bleomycin + Olaparib; first compound 0.01 µM): 0.114
- relative viability (Bleomycin + Olaparib; first compound 0.03162 µM): 0.147
- relative viability (Bleomycin + Olaparib; first compound 0.1 µM): 0.0932
- relative viability (Bleomycin + Olaparib; first compound 0.3162 µM): 0.0421
- relative viability (Bleomycin + Olaparib; first compound 1 µM): 0.0404
- relative viability (Etoposide + Bortezomib; first compound 0.01 µM): 0.9
- relative viability (Etoposide + Bortezomib; first compound 0.03162 µM): 1.08
- relative viability (Etoposide + Bortezomib; first compound 0.1 µM): 0.918
- relative viability (Etoposide + Bortezomib; first compound 0.3162 µM): 0.687
- relative viability (Etoposide + Bortezomib; first compound 1 µM): 0.666

Cell Line: NCI-H1648
- relative viability (Bleomycin + Olaparib; first compound 0.01 µM): 0.757
- relative viability (Bleomycin + Olaparib; first compound 0.03162 µM): 0.571
- relative viability (Bleomycin + Olaparib; first compound 0.1 µM): 0.443
- relative viability (Bleomycin + Olaparib; first compound 0.3162 µM): 0.267
- relative viability (Bleomycin + Olaparib; first compound 1 µM): 0.357

Cell Line: A549
- relative viability (Etoposide + Linsitinib; first compound 0.01 µM): 0.41
- relative viability (Etoposide + Linsitinib; first compound 0.03162 µM): 0.584
- relative viability (Etoposide + Linsitinib; first compound 0.1 µM): 0.225
- relative viability (Etoposide + Linsitinib; first compound 0.3162 µM): 0.262
- relative viability (Etoposide + Linsitinib; first compound 1 µM): 0.0891
- relative viability (Bleomycin + Alpelisib; first compound 0.01 µM): 0.593
- relative viability (Bleomycin + Alpelisib; first compound 0.03162 µM): 0.44
- relative viability (Bleomycin + Alpelisib; first compound 0.1 µM): 0.314
- relative viability (Bleomycin + Alpelisib; first compound 0.3162 µM): 0.0966
- relative viability (Bleomycin + Alpelisib; first compound 1 µM): 0.0714
- relative viability (Bleomycin + Olaparib; first compound 0.01 µM): 0.25
- relative viability (Bleomycin + Olaparib; first compound 0.03162 µM): 0.263
- relative viability (Bleomycin + Olaparib; first compound 0.1 µM): 0.29
- relative viability (Bleomycin + Olaparib; first compound 0.3162 µM): 0.0728
- relative viability (Bleomycin + Olaparib; first compound 1 µM): 0.0649
